Test results reported in PMC10892818, “An Antiherpesviral Host-Directed Strategy Based on CDK7 Covalently Binding Drugs: Target-Selective, Picomolar-Dose, Cross-Virus Reactivity” (Pharmaceutics, 2024).

Key:
HCMV UL97-C480F [1] = system: HCMV UL97-C480F; design: method as in PMID 31940472; key: R-high, high-level drug resistance; R-int, intermediate-level drug resistance; R-low, low-level drug resistance; S, drug sensitivity; details: cited from earlier work
HCMV UL97-M460I [2] = system: HCMV UL97-M460I; design: method as in PMID 31940472; key: R-high, high-level drug resistance; R-int, intermediate-level drug resistance; R-low, low-level drug resistance; S, drug sensitivity; details: cited from earlier work
HCMV UL97-F342S [3] = system: HCMV UL97-F342S; design: method as in PMID 31940472; key: R-high, high-level drug resistance; R-int, intermediate-level drug resistance; R-low, low-level drug resistance; S, drug sensitivity; details: (for F342Y); cited from earlier work
HCMV UL97-H411Y [4] = test: HCMV reporter-based antiviral assay, drug-resistant mutant; type: cell-based, human cytomegalovirus; details: Human betaherpesvirus 5, read-out: Measured EC50 ref. drugs UL97-H411Y
Procedure: (§1) For the infection experiments, stocks of the following recombinant, reporter protein-expressing viruses (GFP or YFP (i.e., green or yellow fluorescent protein, respectively)) were propagated (in permissive cells), determined in their infectious titers performing the respective reporter assays, stored by aliquots at −80 °C, and used for the assessment of antiviral drug activities: human cytomegalovirus HCMV AD169-GFP (HFFs); murine cytomegalovirus MCMV C3X-GFP (MEFs); guinea pig cytomegalovirus GPCMV v403-GFP (GPEFs); human herpesvirus type 6A HHV-6A U1102-GFP (J-Jhan); herpes simplex virus type 1 HSV-1 166v VP22-GFP (HFFs); varicella zoster virus VZV Oka-GFP (HFFs); Epstein-Barr virus EBV Akata-GFP (Akata-BX1-GFP carrier cells; kindly provided by Lindsey Hutt-Fletcher and Rona Scott, Dept. Microbiol. Immunol., LSUHSC Univ., Shreveport, LA, USA); and Kaposi’s sarcoma-associated herpesvirus KSHV rKSHV.219-GFP/RFP (in iSLK.219 carrier cells).
(§2) For HCMV AD169-GFP infection, the replication assay was based on a seeding of 225,000 HFFs or 13,500 HFFs in 12 well or 96 well plates, respectively, which were then inoculated with HCMV AD169-GFP [55] at an MOI of 0.25 GFP-FU/mL/7 d for a 90 min period of inoculum–cell adsorption, followed by a medium refreshment including the immediate addition of antiviral compounds. At 7 d p.i., the infected HFFs were either directly fixed with 10% formalin for 20 min at 4 °C (when used for infection in the 96 well format) or lysed and transferred to 96 well plates (when used for infection in the 12 well format) so that the reporter of viral replication could be quantified by GFP fluorometry using a Perkin Elmer Victor X4 Multimode Plate Reader (Perkin Elmer, Waltham, MA, USA).
(§3) Due to the fact that the HCMV-encoded protein kinase pUL97 represents a functional and structural ortholog of the host CDKs (vCDK/pUL97), the viral mutants of ORF-UL97 were assessed for sensitivity against CDK7 inhibitors.

HCMV UL97-L397R = test: as above; type: cell-based, human cytomegalovirus; details: Human betaherpesvirus 5, read-out: Measured EC50 ref. drugs UL97-L397R
Procedure: as §1, §2, §3

HCMV UL97-T409M = test: as above; type: cell-based, human cytomegalovirus; details: Human betaherpesvirus 5, read-out: Measured EC50 ref. drugs UL97-T409M
Procedure: as §1, §2, §3

HCMV UL97-C592G = test: as above; type: cell-based, human cytomegalovirus; details: Human betaherpesvirus 5, read-out: Measured EC50 ref. drugs UL97-C592G
Procedure: as §1, §2, §3

HCMV UL97-F342S [5] = test: as above; type: cell-based, human cytomegalovirus; details: Human betaherpesvirus 5, read-out: Measured EC50 ref. drugs UL97-F342S
Procedure: as §1, §2, §3

HCMV UL97-C603W = test: as above; type: cell-based, human cytomegalovirus; details: Human betaherpesvirus 5, read-out: Measured EC50 ref. drugs UL97-C603W
Procedure: as §1, §2, §3

HCMV UL97-H520Q [6] = test: as above; type: cell-based, human cytomegalovirus; details: Human betaherpesvirus 5, read-out: Measured EC50 ref. drugs UL97-H520Q
Procedure: as §1, §2, §3

HCMV UL97-M460I [7] = test: as above; type: cell-based, human cytomegalovirus; details: Human betaherpesvirus 5, AD169, read-out: Measured EC50 ref. drugs UL97-M460I
Procedure: as §1, §2, §3

HCMV UL97-C480F [8] = test: as above; type: cell-based, human cytomegalovirus; details: Human betaherpesvirus 5, read-out: Measured EC50 ref. drugs UL97-C480F
Procedure: as §1, §2, §3

HCMV UL97-H469V = test: as above; type: cell-based, human cytomegalovirus; details: Human betaherpesvirus 5, read-out: Measured EC50 ref. drugs UL97-H469V
Procedure: as §1, §2, §3

HCMV UL97-H411Y [9] = system: HCMV UL97-H411Y; design: method as in PMID 31940472; key: R-high, high-level drug resistance; R-int, intermediate-level drug resistance; R-low, low-level drug resistance; S, drug sensitivity; details: cited from earlier work
HCMV UL97-H520Q [10] = system: HCMV UL97-H520Q; design: method as in PMID 31940472; key: R-high, high-level drug resistance; R-int, intermediate-level drug resistance; R-low, low-level drug resistance; S, drug sensitivity; details: cited from earlier work

## Nc1ccn(C[C@@H](CO)OCP(=O)(O)O)c(=O)n1 [CDV, cidofovir]
HCMV UL97-C480F [1]
  Reported phenotype UL97-C480F: S
HCMV UL97-M460I [2]
  Reported phenotype UL97-M460I: S
HCMV UL97-F342S [3]
  Reported phenotype UL97-F342S: S
HCMV UL97-H411Y [4]
  EC50: 0.42 µM
HCMV UL97-L397R
  EC50: 0.34 µM
HCMV UL97-T409M
  EC50: 0.26 µM
HCMV UL97-C592G
  EC50: 0.4 µM
HCMV UL97-F342S [5]
  EC50: 0.19 µM
HCMV UL97-C603W
  EC50: 0.41 µM
HCMV UL97-H520Q [6]
  EC50: 0.1 µM
HCMV UL97-M460I [7]
  EC50: 0.07 µM
HCMV UL97-C480F [8]
  EC50: 0.4 µM
HCMV UL97-H469V
  EC50: 0.18 µM
HCMV UL97-H411Y [9]
  Reported phenotype UL97-H411Y: S
HCMV UL97-H520Q [10]
  Reported phenotype UL97-H520Q: S

## Nc1nc(O)c2ncn(COC(CO)CO)c2n1 [GCV, ganciclovir]
HCMV UL97-C480F [1]
  Reported phenotype UL97-C480F: R-int
HCMV UL97-M460I [2]
  Reported phenotype UL97-M460I: R-high
HCMV UL97-F342S [3]
  Reported phenotype UL97-F342S: R-high
HCMV UL97-H411Y [4]
  EC50: 3.76 ± 0.6 µM
HCMV UL97-L397R
  EC50: 2.24 ± 0.5 µM
HCMV UL97-T409M
  EC50: 1.98 ± 0.2 µM
HCMV UL97-C592G
  EC50: 4.67 ± 1.1 µM
HCMV UL97-F342S [5]
  EC50: 17.1 ± 1.5 µM
HCMV UL97-C603W
  EC50: 9.87 ± 1 µM
HCMV UL97-H520Q [6]
  EC50: 10.7 ± 0.7 µM
HCMV UL97-M460I [7]
  EC50: 9.24 ± 3.3 µM
HCMV UL97-C480F [8]
  EC50: 10.5 ± 2.2 µM
HCMV UL97-H469V
  EC50: 1.22 ± 0.2 µM
HCMV UL97-H411Y [9]
  Reported phenotype UL97-H411Y: R-low
HCMV UL97-H520Q [10]
  Reported phenotype UL97-H520Q: R-high
